Drawing on US10106501B2, “Nuclear receptor modulators” (AbbVie Inc., priority 2015, dated 2018), this text covers IC50 for 29 compounds.

Like-named read-outs stand apart in the source and are kept apart here.

The target in this assay is T1, chimeric human RORγ-Gal4 receptor (Homo sapiens, UniProt P51449).
T1 sequence (P51449 269-508 limits assumed): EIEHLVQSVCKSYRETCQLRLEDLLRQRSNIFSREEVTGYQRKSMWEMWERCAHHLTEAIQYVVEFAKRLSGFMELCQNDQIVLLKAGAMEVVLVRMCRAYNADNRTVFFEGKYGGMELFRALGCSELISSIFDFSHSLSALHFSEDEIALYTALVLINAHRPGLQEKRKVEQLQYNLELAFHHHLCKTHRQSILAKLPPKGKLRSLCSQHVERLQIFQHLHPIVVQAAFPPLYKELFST
Nature of the assay: transient transactivation assay (RORγ-Gal4 luciferase reporter). Particulars: read-out: IC50. The format is cell-based. Background: A reporter such as luciferase makes a cellular process visible.

The mark [1] stands for this setting: Cos-7 cells transfected with RORγ-Gal4 and 5Gal4 pGL3 TK Luc reporter, overnight incubation, T0901317 at 10^-5 M as reference.

Turning to `Cc1cc(C(F)(F)F)nc2c1cc(Cc1c(Cl)ncc(C(=O)N3CCC(S(C)(=O)=O)CC3)c1Cl)n2C` [Example GG, (4,6-dichloro-5-((1,4-dimethyl-6-(trifluoromethyl)-1H-pyrrolo[2,3-b]pyridin-2-yl)methyl)pyridin-3-yl)(4-(methylsulfonyl)piperidin-1-yl)methanone], the IC50 under setting [1] was less than 100 nM.

For the compound `Cc1cc(C(F)(F)F)nc2c1cc(Cc1c(Cl)cnc(C(=O)N3CCOCC3)c1Cl)n2C` [Example GH, (3,5-dichloro-4-((1,4-dimethyl-6-(trifluoromethyl)-1H-pyrrolo[2,3-b]pyridin-2-yl)methyl)pyridin-2-yl)(morpholino)methanone], the IC50 is less than 100 nM.

On to `Cn1c(C(=O)c2c(Cl)ccc(C(=O)N3CCC(CC(=O)O)CC3)c2Cl)cc2ccc(OC(F)(F)F)cc21` [Example GI, 2-(1-(2,4-dichloro-3-(1-methyl-6-(trifluoromethoxy)-1H-indole-2-carbonyl)benzoyl)piperidin-4-yl)acetic acid], for which, under setting [1], the IC50 is less than 100 nM.

In the case of `Cn1c(Cc2c(Cl)cnc(C(=O)N3CCC(CC(=O)O)CC3)c2Cl)cc2ccc(OC(F)(F)F)cc21` [Example GK, 2-(1-(3,5-dichloro-4-((1-methyl-6-(trifluoromethoxy)-1H-indol-2-yl)methyl)picolinoyl)piperidin-4-yl)acetic acid], under setting [1], the IC50 is less than 100 nM.

Consider `Cn1c(Cc2c(Cl)ncc(C(=O)N3CCC(CC(=O)O)CC3)c2Cl)cc2c(F)cc(C3CC3)cc21` [Example GN, 2-[1-[4,6-dichloro-5-[(6-cyclopropyl-4-fluoro-1-methyl-1H-indol-2-yl)methyl]pyridine-3-carbonyl]-4-piperidyl]acetic acid], for which the 50% inhibitory concentration (IC50) under setting [1] was less than 100 nM.

With `COC(c1c(C)ccc(C(=O)N2CCOCC2)c1C)c1cc2c(C)cc(C(F)(F)F)cc2n1C` (centres unmarked) [Example K1, (3-((1,4-dimethyl-6-(trifluoromethyl)-1H-indol-2-yl)(methoxy)methyl)-2,4-dimethylphenyl)(morpholino)methanone], under setting [1], the IC50 is 100 to 500 nM.

With `Cn1c(Cc2c(Cl)ccc(C(=O)N3CCC(CO)CC3)c2Cl)cc2ccc(C(F)(F)F)cc21` [Example L-2], under setting [1], the IC50 lay in the range of 100 to 500 nM.

Turning to `CC(=O)N1CCN(C(=O)c2ccc(Cl)c(Cc3cc4ccc(C(F)(F)F)cc4n3C)c2Cl)CC1` [Example L-3], under setting [1], the IC50 fell in the range of 100 to 500 nM.

As to `Cn1c(Cc2c(Cl)ccc(C(=O)N3CC[C@@H](F)[C@H](O)C3)c2Cl)cc2ccc(C(F)(F)F)cc21` [Example L-5], the concentration for half-maximal inhibition (IC50) under setting [1] is 500 to 1000 nM.

On to `Cc1cc(C(F)(F)F)cc2c1CC(Cc1c(Cl)ccc(C(=O)N3CCOCC3)c1Cl)N2C` (centres unmarked) [Example Q, (2,4-dichloro-3-((1,4-dimethyl-6-(trifluoromethyl)indolin-2-yl)methyl)phenyl)(morpholino)methanone], for which the IC50 under setting [1] was in the range of 100 to 500 nM.

As to `Cn1c(Cc2c(Cl)ccc(C(=O)N3CCC(CC(=O)O)CC3)c2Cl)cc2c(Cl)cc(C#N)cc21` [Example R, 2-(1-(2,4-dichloro-3-((4-chloro-6-cyano-1-methyl-1H-indol-2-yl)methyl)benzoyl)piperidin-4-yl)acetic acid], under setting [1], the IC50 was less than 100 nM.

As to `Cc1cc(C(F)(F)F)cc2c1cc(Cc1c(Cl)ccc(C(=O)N3CCN(C4CC(C(=O)O)C4)CC3)c1Cl)n2C` (centres unmarked) [Example S, 3-(4-(2,4-dichloro-3-((1,4-dimethyl-6-(trifluoromethyl)-1H-indol-2-yl)methyl)benzoyl)piperazin-1-yl)cyclobutanecarboxylic acid], the IC50 under setting [1] was less than 100 nM.

For `Cc1cc(C(F)(F)F)cc2c1cc(Cc1c(Cl)ccc(C(=O)N3CCN(C(C)(C)C(=O)O)CC3)c1Cl)n2C` [Example T, 2-(4-(2,4-dichloro-3-((1,4-dimethyl-6-(trifluoromethyl)-1H-indol-2-yl)methyl)benzoyl)piperazin-1-yl)-2-methylpropanoic acid], under setting [1], the IC50 is 100 to 500 nM.

Consider `Cc1cc(C(F)(F)F)cc2c1cc(Cc1c(Cl)ccc(C(=O)N3CCN(C(C)C(=O)O)CC3)c1Cl)n2C` (centres unmarked) [Example U, 2-(4-(2,4-dichloro-3-((1,4-dimethyl-6-(trifluoromethyl)-1H-indol-2-yl)methyl)benzoyl)piperazin-1-yl)propanoic acid], for which, under setting [1], the IC50 is less than 100 nM.

Turning to `Cc1cc(C(F)(F)F)cc2c1c(Cc1c(Cl)ccc(C(=O)N3CCC(CC(=O)O)CC3)c1Cl)cn2C` [F, 2-(1-(2,4-dichloro-3-((1,4-dimethyl-6-(trifluoromethyl)-1H-indol-3-yl)methyl)benzoyl)piperidin-4-yl)acetic acid], the IC50 under setting [1] was less than 100 nM.

Consider `Cn1c(Cc2c(Cl)ccc(C(=O)N3CCC(CC(=O)O)CC3)c2Cl)cc2c(Cl)cc(Cl)cc21` [FA, 2-(1-(2,4-dichloro-3-((4,6-dichloro-1-methyl-1H-indol-2-yl)methyl)benzoyl)piperidin-4-yl)acetic acid], for which the IC50 under setting [1] is less than 100 nM.

As for `Cn1c(Cc2c(Cl)ccc(C(=O)N3CCC(C(=O)O)CC3)c2Cl)cc2c(F)cc(C(F)(F)F)cc21` [FE-2], the IC50 under setting [1] was less than 100 nM.

In the case of `C[C@@H]1CN(C(=O)c2ccc(Cl)c(Cc3cc4c(F)cc(C(F)(F)F)cc4n3C)c2Cl)CC[C@@H]1C(=O)O` [FE-3], the IC50 under setting [1] is less than 100 nM.

In the case of `C[C@H]1CN(C(=O)c2ccc(Cl)c(Cc3cc4c(F)cc(C(F)(F)F)cc4n3C)c2Cl)CC[C@H]1C(=O)O` [FE-4], the IC50 under setting [1] is less than 100 nM.

`Cc1cc(OC(F)F)cc2c1cc(Cc1c(Cl)ccc(C(=O)N3CCC(C(=O)O)C(C)C3)c1Cl)n2C` (centres unmarked) [FF-1]: under setting [1], the IC50 is less than 100 nM.

With `Cc1cc(OC(F)F)cc2c1cc(Cc1c(Cl)ccc(C(=O)N3CCC(C(=O)O)CC3)c1Cl)n2C` [FF-2], the concentration for half-maximal inhibition (IC50) under setting [1] is less than 100 nM.

As for `Cn1c(Cc2c(Cl)ccc(C(=O)N3CCC(C(=O)O)CC3)c2Cl)cc2ccc(OC(F)(F)F)cc21` [FI-1], under setting [1], the IC50 was less than 100 nM.

As to `CC1CN(C(=O)c2ccc(Cl)c(Cc3cc4ccc(OC(F)(F)F)cc4n3C)c2Cl)CCC1C(=O)O` (centres unmarked) [FI-2], under setting [1], the IC50 is less than 100 nM.

As for `Cc1ccc(C(=O)N2CCOCC2)c(C)c1Cc1cc2c(C)cc(C(F)(F)F)cc2n1C` [G, (3-((1,4-dimethyl-6-(trifluoromethyl)-1H-indol-2-yl)methyl)-2,4-dimethylphenyl)(morpholino)methanone], under setting [1], the IC50 is less than 100 nM.

As to `Cc1cc(C(F)(F)F)cc2ccn(Cc3c(Cl)ccc(C(=O)N4CCC(CC(=O)O)CC4)c3Cl)c12` [J, 2-(1-(2,4-dichloro-3-((7-methyl-5-(trifluoromethyl)-1H-indol-1-yl)methyl)benzoyl)piperidin-4-yl)acetic acid], the IC50 under setting [1] is less than 100 nM.

Turning to `Cc1ccc(C(=O)N2CCOCC2)c(C)c1C(O)c1cc2c(C)cc(C(F)(F)F)cc2n1C` (centres unmarked) [K, (3-((1,4-dimethyl-6-(trifluoromethyl)-1H-indol-2-yl)(hydroxy)methyl)-2,4-dimethylphenyl)(morpholino)methanone], the IC50 under setting [1] lay in the range of 100 to 500 nM.

With `Cn1c(Cc2c(Cl)ccc(C(=O)N3CCC(O)CC3)c2Cl)cc2ccc(C(F)(F)F)cc21` [L, (2,4-dichloro-3-((1-methyl-6-(trifluoromethyl)-1H-indol-2-yl)methyl)phenyl)(4-hydroxypiperidin-1-yl)methanone], under setting [1], the IC50 is less than 100 nM.

For the compound `Cn1c(Cc2c(Cl)ccc(C(=O)N3CCC(C(=O)O)CC3)c2Cl)cc2ccc(C(F)(F)F)cc21` [M, 1-(2,4-dichloro-3-((1-methyl-6-(trifluoromethyl)-1H-indol-2-yl)methyl)benzoyl)piperidine-4-carboxylic acid], the IC50 under setting [1] lay in the range of 100 to 500 nM.

As for `Cn1c(Cc2c(Cl)ccc(C(=O)N3CCN(C4CC(C(=O)O)C4)CC3)c2Cl)cc2ccc(C(F)(F)F)cc21` (centres unmarked) [O, 3-(4-(2,4-dichloro-3-((1-methyl-6-(trifluoromethyl)-1H-indol-2-yl)methyl)benzoyl)piperazin-1-yl)cyclobutanecarboxylic acid], the IC50 under setting [1] was 100 to 500 nM.

As a reminder, the IC50 is the concentration that gives 50% inhibition.
